Results reported in the NIST ThermoML archive (doi:10.1016/j.jct.2012.09.004).

Tests used:
[1] = Pendant drop shape
[2] = refractive index (Na D-line) (dimensionless); settings: 101.33 kPa, Liquid, Standard Abbe refractometry
[3] = wn = mass fraction of the nth substance listed; settings: Pendant drop shape
[4] = refractive index (Na D-line) (dimensionless); wn = mass fraction of the nth substance listed; settings: 101 kPa, Liquid, Standard Abbe refractometry

CCCCCCCCCC(=O)[O-].CCCCCCCCCCCCCC[P+](CCCCCC)(CCCCCC)CCCCCC [trihexyltetradecylphosphonium decanoate]
Settings | refractive index | surface tension liquid-gas [mN/m]
[1], 298 K | – | 29
[1], 307.9 K | – | 28.5
[1], 318 K | – | 27.8
[1], 328.5 K | – | 27.2
[1], 338 K | – | 26.6
[1], 343 K | – | 26.2
[2], 283.15 K | 1.47754 | –
[2], 288.15 K | 1.47586 | –
[2], 293.15 K | 1.47413 | –
[2], 298.15 K | 1.47242 | –
[2], 303.15 K | 1.47069 | –
[2], 308.15 K | 1.46896 | –
[2], 313.15 K | 1.46722 | –
[2], 318.15 K | 1.46548 | –
[2], 323.15 K | 1.46341 | –
[2], 328.15 K | 1.46165 | –
[2], 333.15 K | 1.46002 | –
[2], 338.15 K | 1.45828 | –
[2], 343.15 K | 1.4566 | –
[2], 348.15 K | 1.45497 | –
[2], 353.15 K | 1.45327 | –

CCCCCCCCCCCCCC[P+](CCCCCC)(CCCCCC)CCCCCC.[Br-] [tetradecyltrihexylphosphonium bromide] + O
Settings | refractive index | surface tension liquid-gas [mN/m]
[3], 298.1 K, w2 = 0.0665 | – | 31.4
[3], 307.9 K, w2 = 0.0665 | – | 30.35
[3], 318.1 K, w2 = 0.0665 | – | 29.64
[3], 328.1 K, w2 = 0.0665 | – | 28.95
[3], 338.9 K, w2 = 0.0665 | – | 28.2
[3], 344.2 K, w2 = 0.0665 | – | 27.91
[4], 298.15 K, w2 = 0.065 | 1.4782 | –
[4], 303.15 K, w2 = 0.065 | 1.47646 | –
[4], 308.15 K, w2 = 0.065 | 1.47465 | –
[4], 313.15 K, w2 = 0.065 | 1.47289 | –
[4], 318.15 K, w2 = 0.065 | 1.47115 | –
[4], 323.15 K, w2 = 0.065 | 1.46939 | –
[4], 328.15 K, w2 = 0.065 | 1.46765 | –
[4], 333.15 K, w2 = 0.065 | 1.46587 | –
[4], 338.15 K, w2 = 0.065 | 1.46414 | –
[4], 343.15 K, w2 = 0.065 | 1.46244 | –
[4], 348.15 K, w2 = 0.065 | 1.46078 | –
[4], 353.15 K, w2 = 0.065 | 1.45926 | –

CCCCCCCCCCCCCC[P+](CCCCCC)(CCCCCC)CCCCCC.N#C[N-]C#N [tetradecyl(trihexyl)phosphonium dicyanamide]
Settings | refractive index | surface tension liquid-gas [mN/m]
[1], 298.4 K | – | 32.3
[1], 308 K | – | 31.6
[1], 318 K | – | 30.9
[1], 328.4 K | – | 30.3
[1], 339.2 K | – | 29.7
[1], 343.4 K | – | 29.4
[2], 283.15 K | 1.48861 | –
[2], 288.15 K | 1.48706 | –
[2], 293.15 K | 1.48545 | –
[2], 298.15 K | 1.48387 | –
[2], 303.15 K | 1.48228 | –
[2], 308.15 K | 1.48064 | –
[2], 313.15 K | 1.47902 | –
[2], 318.15 K | 1.47744 | –
[2], 323.15 K | 1.47585 | –
[2], 328.15 K | 1.47421 | –
[2], 333.15 K | 1.47252 | –
[2], 338.15 K | 1.4709 | –
[2], 343.15 K | 1.46926 | –
[2], 348.15 K | 1.46767 | –
[2], 353.15 K | 1.46599 | –

CCCCCCCCCCCCCC[P+](CCCCCC)(CCCCCC)CCCCCC.CS(=O)(=O)[O-] [trihexyltetradecylphosphonium methanesulfonate] + O
w2 = 0.1181
Settings | refractive index | surface tension liquid-gas [mN/m]
[3], 298.6 K | – | 31.15
[3], 307.8 K | – | 30.45
[3], 318 K | – | 29.81
[3], 323.8 K | – | 29.09
[3], 338.2 K | – | 28.29
[3], 342.7 K | – | 28.05
[4], 298.15 K | 1.45621 | –
[4], 303.15 K | 1.4546 | –
[4], 308.15 K | 1.45281 | –
[4], 313.15 K | 1.45111 | –
[4], 318.15 K | 1.44947 | –
[4], 323.15 K | 1.44795 | –
[4], 328.15 K | 1.44655 | –
[4], 333.15 K | 1.44532 | –
[4], 338.15 K | 1.44427 | –
[4], 343.15 K | 1.44334 | –
[4], 348.15 K | 1.44253 | –
[4], 353.15 K | 1.44181 | –

CCCCCCCCCCCCCC[P+](CCCCCC)(CCCCCC)CCCCCC.O=S(=O)([N-]S(=O)(=O)C(F)(F)F)C(F)(F)F + O
w2 = 0.0023
Settings | refractive index | surface tension liquid-gas [mN/m]
[3], 298.1 K | – | 30.05
[3], 307.8 K | – | 29.33
[3], 318 K | – | 28.6
[3], 328 K | – | 27.91
[3], 338.6 K | – | 27.17
[3], 343.3 K | – | 26.88
[4], 298.15 K | 1.44921 | –
[4], 303.15 K | 1.44765 | –
[4], 308.15 K | 1.44606 | –
[4], 313.15 K | 1.44449 | –
[4], 318.15 K | 1.44293 | –
[4], 323.15 K | 1.44136 | –
[4], 328.15 K | 1.4398 | –
[4], 333.15 K | 1.43822 | –
[4], 338.15 K | 1.43669 | –
[4], 343.15 K | 1.43515 | –
[4], 348.15 K | 1.43362 | –
[4], 353.15 K | 1.43207 | –

CC(CC(C)(C)C)CP(=O)([O-])CC(C)CC(C)(C)C.CCCCCCCCCCCCCC[P+](CCCCCC)(CCCCCC)CCCCCC
Settings | refractive index | surface tension liquid-gas [mN/m]
[1], 297.9 K | – | 28.2
[1], 307.9 K | – | 27.6
[1], 317.7 K | – | 26.9
[1], 328.1 K | – | 26.2
[1], 338 K | – | 25.5
[1], 342.9 K | – | 25
[2], 283.15 K | 1.47702 | –
[2], 288.15 K | 1.47538 | –
[2], 293.15 K | 1.47374 | –
[2], 298.15 K | 1.47209 | –
[2], 303.15 K | 1.47044 | –
[2], 308.15 K | 1.46879 | –
[2], 313.15 K | 1.46712 | –
[2], 318.15 K | 1.46546 | –
[2], 323.15 K | 1.46383 | –
[2], 328.15 K | 1.46216 | –
[2], 333.15 K | 1.46056 | –
[2], 338.15 K | 1.45893 | –
[2], 343.15 K | 1.45716 | –
[2], 348.15 K | 1.45553 | –
[2], 353.15 K | 1.45387 | –

CCCCCCCCCCCCCC[P+](CCCCCC)(CCCCCC)CCCCCC.N#C[N-]C#N [tetradecyl(trihexyl)phosphonium dicyanamide] + O
w2 = 0.0309
Settings | refractive index | surface tension liquid-gas [mN/m]
[3], 298.2 K | – | 32.56
[3], 307.8 K | – | 31.8
[3], 318 K | – | 31.2
[3], 328 K | – | 30.5
[3], 338.8 K | – | 29.9
[3], 342.8 K | – | 29.5
[4], 298.15 K | 1.47866 | –
[4], 303.15 K | 1.47702 | –
[4], 308.15 K | 1.47535 | –
[4], 313.15 K | 1.47367 | –
[4], 318.15 K | 1.47207 | –
[4], 323.15 K | 1.47049 | –
[4], 328.15 K | 1.46893 | –
[4], 333.15 K | 1.46739 | –
[4], 338.15 K | 1.46586 | –
[4], 343.15 K | 1.46442 | –
[4], 348.15 K | 1.46302 | –
[4], 353.15 K | 1.46163 | –
